Test results reported in patent US6015577A, “Pharmaceutical compositions containing dipyridamole or mopidamol and acetylsalicylic acid or the physiologically acceptable salts thereof, processes for preparing them and their use in treating clot formation” (Thomae GmbH; Dr. Karl, priority 1986, dated 2000).

System: clot formation in vessels of the mesenterium
Test: electrically induced clot formation in mesenteric vein, clot size monitored by intravital microscope
Format: in vivo, rat
Details: 2.5 mg/kg acetylsalicylic acid or 5 mg/kg dipyridamole p.o. alone; FIGS. 5 and 6
Protocol: The antithrombotic activity achieved with a simultaneous oral administration, according to the invention, of 5 mg/kg of dipyridamole and 0.05 mg/kg of acetylsalicylic acid (weight ratio of dipyridamole to acetylsalicylic acid=100) and, by comparison, during sequential oral administration (according to European Application No. 85 108 761.9) of 5 mg/kg of dipyridamole and 5 mg/kg of acetylsalicylic acid to rats (FW 49) with a body weight of from 60 to 80 g before the start of the experiment was investigated by applying a clotting stimulus to vessels of the mesenterium and by monitoring the size of the clots over a period of time. Groups of 5 animals were used. […] An interval of 1 hour was left between the simultaneous oral administration of the substances according to the invention and the application of the clot or the actual carrying out of the measurements. […]
Using an intravital microscope to monitor the process, a platinum electrode was placed on an outer blood vessel wall of the mesenterium. […] The size of the clot is measured at 10 second intervals and later at 30 second intervals over a period of up to 20 minutes after the stimulation of the blood vessel and is given as the size of the clot (at right angles to the blood vessel wall) as a percentage of the internal diameter of the blood vessel.

SMILES | reduction in the clot size, single substance
CC(=O)Oc1ccccc1C(=O)O [Acetylsalicylic acid, acetylsalicylic acid] | do not bring about any significant reduction in the clot size
OCCN(CCO)c1nc(N2CCCCC2)c2nc(N(CCO)CCO)nc(N3CCCCC3)c2n1 [Dipyridamole, 2,6-bis-(diethanolamino)-4,8-dipiperidino-(5,4-d)-pyrimidine] | do not bring about any significant reduction in the clot size
